Results: US20110224170A1, “Pyranopyranone derivatives as antimicrobial agents” (BASF SE, priority 2010, published 2011)
≈ marks a conversion by molar mass, not a printed value.

Key:
[1] = test system: gram positive and gram negative bacteria; assay: Suspension test for bactericidal activity (modified EN 1040), residual cell count; format: cell-based
Experimental: The bactericidal activity of the compounds of the present invention is measured in a suspension test according to trivial modifications of the European Standard method EN 1040. Substances listed in Table 1 are tested against gram positive and gram negative bacteria, yeasts and moulds. A selection of the results is shown in the following. The pyrano pyranone derivatives are dissolved in ethanol or DMSO resulting in 1% stock solutions of the compounds. The cell densities of the bacterial suspensions used as inoculums for the suspension test are as follows (cfu=colony forming units): [table] For the suspension tests, an appropriate concentration of the test compound is mixed with a bacterial suspension resulting in a final cell count in the mixture of about 10^5 cfu/ml. These test mixtures are incubated at room temperature (22° C.+/−2° C.) and aliquots of 1 ml test mixture containing the test bacteria were taken after set contact times for determination of the residual cell count of test bacteria. For inactivation of the antimicrobial compounds, the 1 ml aliquots are diluted in 1:10 steps in a solution with 10% Tween, 3% lecithin, 0.1% histidine and 0.5% sodium thiosulfate.

[2] = test system: Candida albicans ATCC 10231; assay: Suspension test for fungicidal activity (modified EN 1275), residual cell count; format: cell-based; conditions: C. albicans
Experimental: The fungicidal activity of the compounds of the present invention is measured in a suspension test according to trivial modifications of the European Standard method EN 1275. The pyrano pyranone derivatives are dissolved in ethanol or DMSO resulting in 1% stock solutions of the compounds. The cell density of Candida albicans ATCC 10231 used as inoculum for the suspension test was 2.4×10^8 cfu/ml and of A. niger ATCC 6275 3.8×10^8 cfu/ml. For the suspension tests, an appropriate concentration of the test compound is mixed with a Candida albicans suspension resulting in a final cell count of about 10^5 cfu/ml. These test mixtures are incubated at room temperature (22° C.+/−2° C.) and aliquots of 1 ml test mixture containing Candida albicans were taken after set contact times for determination of the residual cell count. For inactivation of the antimicrobial compounds, the 1 ml aliquots are diluted in 1:10 steps in a solution with 10% Tween, 3% lecithin, 0.1% histidine and 0.5% sodium thiosulfate.

A. niger ATCC 6275 = assay: as above; format: cell-based, Aspergillus niger
Experimental: The fungicidal activity of the compounds of the present invention is measured in a suspension test according to trivial modifications of the European Standard method EN 1275. The pyrano pyranone derivatives are dissolved in ethanol or DMSO resulting in 1% stock solutions of the compounds. The cell density of Candida albicans ATCC 10231 used as inoculum for the suspension test was 2.4×10^8 cfu/ml and of A. niger ATCC 6275 3.8×10^8 cfu/ml. Aliquots of 1 ml were taken of the A. niger containing test mixtures after set contact times for determination of the residual cell count. For inactivation of the antimicrobial compounds, the 1 ml aliquots were diluted in 1:10 steps in a solution of the following composition: [table]

[3] = test system: Malassezia furfur DSM 6171, CIP 1636-86; assay: Agar incorporation test, minimum inhibitory concentration (MIC); format: cell-based; conditions: M. fufur
Experimental: For determination of the microbistatic activity, the Minimum Inhibitory Concentrations (MIC) of the test compounds is determined.
The pyrano pyranone derivatives are also tested in an agar incorporation test in order to determine their minimum inhibitory concentrations (MIC) against various tests organisms. A selection of the results is shown in the following.
For this compound, a 1% stock solutions i9s prepared in ethanol.
A dilution series of the test compound in 15 ml still liquid agar media are prepared with 400 ppm, 200 ppm, 100 ppm, 50 ppm, 25 ppm, 12.5 ppm, 6.25 ppm, 3.125 ppm and 1.56 pmm of active.
The media used for the agar plates are Müller-Hinton (Merck) for the determination of the MIC against bacteria and C. albicans and Sabouraud Agar (Merck) for the determination of the MIC against A. niger. For the determination of the MIC against Malassezia furfur DSM 6171, CIP 1636-86 Medium 472 (DSMZ—Deutsche Sammlung von Mikroorganismen and Zellkulturen GmbH) was used.
After solidification of the agar, all agar plates containing the test compounds were stored over night in the laboratory (at about 22° C.) for drying. […]
10 μl of these cell dilutions are then dotted onto the surface of the agar media. […] (for Aspergillus niger), 4 days at 30° C. and then the highest dilution of the test compound at which no more growth was observed (corresponds to the MIC) is determined. […]

[4] = P. aeruginosa, contact time 24 h

Structure (SMILES) | log reduction after set contact time ([1]; E. coli, contact time 24 h) | residual cell count (cfu/ml) after set contact time ([1]; E. coli, contact time 24 h) | log reduction after set contact time [1, 4] | residual cell count (cfu/ml) after set contact time [1, 4] | log reduction after set contact time ([1]; S. aureus, contact time 24 h) | residual cell count (cfu/ml) after set contact time ([1]; S. aureus, contact time 24 h) | log reduction after set contact time ([2]; contact time 24 h) | residual cell count (cfu/ml) after set contact time ([2]; contact time 24 h) | log reduction after set contact time (A. niger ATCC 6275; contact time 7 d) | residual cell count (cfu/ml) after set contact time (A. niger ATCC 6275; contact time 7 d) | log reduction after set contact time (A. niger ATCC 6275; contact time 24 h) | residual cell count (cfu/ml) after set contact time (A. niger ATCC 6275; contact time 24 h) | log reduction after set contact time ([1]; S. aureus, contact time 7 d) | residual cell count (cfu/ml) after set contact time ([1]; S. aureus, contact time 7 d) | log reduction after set contact time ([2]; contact time 7 d) | residual cell count (cfu/ml) after set contact time ([2]; contact time 7 d) | MIC [3]
CC(C)=CCCC1(C)C=Cc2c(cc(C)oc2=O)O1 (stereo not shown) [P-3] | >3 | <100 cfu/ml | >3 | <100 cfu/ml | >3 | <100 cfu/ml | >3 | <100 cfu/ml | 2.2 | 1.2 × 10^3 cfu/ml |  |  |  |  |  |  | 
Cc1cc2c(c(=O)o1)C=CC(C)(C)O2 [P-4] | >3 | <100 cfu/ml | >3 | <100 cfu/ml | >3 | <100 cfu/ml | >3 | <100 cfu/ml |  |  | >3 | <10 cfu/ml |  |  |  |  | 
CC1=Cc2c(cc(C)oc2=O)OC1c1ccco1 (stereo not shown) [P-5] | >3 | 4.0 × 10^2 cfu/ml | >3 | <100 cfu/ml |  |  |  |  |  |  |  |  | >3 | <100 cfu/ml | >3 | <100 cfu/ml | 50 µg/mL (≈ 205 µM)
CC1=Cc2c(cc(C)oc2=O)OC1C (stereo not shown) [P-1] | >3 | <100 cfu/ml | >3 | <100 cfu/ml | >3 | <100 cfu/ml | >3 | <100 cfu/ml |  |  | 2.2 | 1.2 × 10^3 cfu/ml |  |  |  |  | 
CCCC1C=Cc2c(cc(C)oc2=O)O1 (stereo not shown) [P-6] | >3 | <100 cfu/ml | >3 | <100 cfu/ml | >3 | <100 cfu/ml | >3 | <100 cfu/ml |  |  | >3 | <10 cfu/ml |  |  |  |  | 
